Numbered stars: 1 amine (or outer) side, 2 acyl side, 3 side chain; on linkers, the order of the positions; unused ones are H or OH. Bridge positions count the residues as written; N and C are the ends. Side chains are listed from the residue outwards. Peptide text beside a SMILES is read from it. * marks the point of attachment. C20 diacid = O=C(O)CCCCCCCCCCCCCCCCCCC(=O)*; γGlu = O=C(O)[C@H](CCC(=O)[*:2])N[*:1]

Assay [1] has as its target T1, human amylin receptor (Homo sapiens, UniProt O60896+P30988).
T1 construct: expressed in transfected cells
T1 sequence (P30988 25-474): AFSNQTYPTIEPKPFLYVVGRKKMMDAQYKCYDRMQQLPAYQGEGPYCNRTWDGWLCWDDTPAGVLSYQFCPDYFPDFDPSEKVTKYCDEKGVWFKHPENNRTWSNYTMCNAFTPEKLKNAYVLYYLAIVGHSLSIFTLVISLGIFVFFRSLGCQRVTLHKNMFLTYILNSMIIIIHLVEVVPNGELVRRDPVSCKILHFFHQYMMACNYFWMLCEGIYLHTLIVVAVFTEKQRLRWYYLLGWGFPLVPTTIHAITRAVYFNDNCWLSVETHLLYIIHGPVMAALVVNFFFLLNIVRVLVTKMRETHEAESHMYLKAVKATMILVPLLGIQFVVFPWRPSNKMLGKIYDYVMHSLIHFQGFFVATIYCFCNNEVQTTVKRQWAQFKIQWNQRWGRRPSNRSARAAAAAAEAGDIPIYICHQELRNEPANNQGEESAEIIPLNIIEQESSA
T1 sequence (O60896 24-148 partner): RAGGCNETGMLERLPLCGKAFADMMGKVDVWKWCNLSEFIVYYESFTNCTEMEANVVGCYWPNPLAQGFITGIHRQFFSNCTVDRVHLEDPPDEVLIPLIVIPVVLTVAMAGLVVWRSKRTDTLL
The assay can be described thus: Assay (V) binding to the human amylin receptor (SPA, 125I-rat amylin). Particulars: human amylin receptor membranes, SPA; read-out: hAmylin-R bind IC50. An outline of the steps:
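IC50, taken as receptor affinity, came from one-site binding competition analysis of scintillation proximity counts. Amylin 3(a)/CRE-luc cell membranes (35 ng/μL final) were mixed with SPA beads (0.05 mg/well) in 50 mM Hepes pH 7.4 containing CaCl2, MgCl2, 0.1% OA and 0.02% Tween20.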

For assay [2], the target named is T2, human calcitonin receptor (Homo sapiens, UniProt P30988).
T2 construct: expressed in transfected cells
T2 sequence (P30988 25-474): T1 sequence (P30988 25-474)
The experiment in a line: Assay (II)a functional assay, human calcitonin receptor (CRE luciferase, BHK cells).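 Further: luminescence from a CRE-driven luciferase reporter, read by single photon counting after cells were exposed to test samples for 3 h at 37 °C under 5% CO2.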 In kind it is cell-based. As to conditions: read-out: hCTR funct. EC50.

Assay [3] deals with T3, human amylin receptor (amylin 3(a) receptor: human calcitonin receptor + RAMP-3) (Homo sapiens, UniProt O60896+P30988).
T3 construct: expressed in transfected cells
T3 sequence (P30988 25-474): T1 sequence (P30988 25-474)
T3 sequence (O60896 24-148 partner): T1 sequence (O60896 24-148 partner)
The assay can be described thus: Assay (II)a functional assay, human amylin receptor (CRE luciferase, BHK cells). The assay is classed as cell-based. Particulars: for EC50: functional assay, human amylin receptor, read-out: hAmylin-R funct. EC50.

The target in assay [4] is T2, human calcitonin receptor. The experiment in a line: Assay (VII) binding to the human calcitonin receptor (SPA, 125I-Calcitonin).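 Further: cell membranes coupled to SPA beads, competitive displacement read by scintillation counting, IC50 derived from a one-site competition fit as a measure of receptor affinity.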 As to conditions: read-out: hCTR bind IC50.
The mark [5] stands for this setting: Table 6, human functional selectivity (hCTR EC50 / hAmylin-R EC50).
Where [6] appears, read: Table 6a, human functional selectivity (hCTR EC50 / hAmylin-R EC50), at least 5.

As usually defined, the IC50 is the midpoint of a concentration-inhibition curve. In general, EC50 refers to the concentration that produces a half-maximal response. Regarding `CC[C@H](C)[C@H](NC(=O)[C@H](C)NC(=O)CNC(=O)[C@H](Cc1ccccc1)NC(=O)[C@H](CC(N)=O)NC(=O)[C@@H]1CCCN1C(=O)[C@H](CO)NC(=O)[C@H](CO)NC(=O)[C@H](Cc1c[nH]cn1)NC(=O)[C@H](CCCNC(=N)N)NC(=O)[C@H](CC(C)C)NC(=O)[C@H](Cc1ccccc1)NC(=O)[C@H](CCC(=O)O)NC(=O)[C@H](C)NC(=O)[C@H](CC(C)C)NC(=O)[C@H](CCCNC(=N)N)NC(=O)[C@H](CCC(N)=O)NC(=O)[C@@H](NC(=O)[C@H](C)NC(=O)[C@@H]1CSSC[C@H](NC(=O)[C@@H](N)CCCCNC(=O)CC[C@H](NC(=O)CC[C@H](NC(=O)CCCCCCCCCCCCCCCCCCC(=O)O)C(=O)O)C(=O)O)C(=O)N[C@@H](CC(N)=O)C(=O)N[C@@H]([C@@H](C)O)C(=O)N[C@@H](C)C(=O)N[C@@H]([C@@H](C)O)C(=O)N1)[C@@H](C)O)C(=O)N[C@@H](CC(C)C)C(=O)N[C@@H](CO)C(=O)N[C@@H](CO)C(=O)N[C@H](C(=O)N1CCC[C@H]1C(=O)N[C@H](C(=O)NCC(=O)N1CCC[C@H]1C(=O)N[C@@H](CCC(=O)O)C(=O)N[C@H](C(=O)N[C@@H](Cc1ccc(O)cc1)C(N)=O)[C@@H](C)O)C(C)C)[C@@H](C)O` [Example 121] (H-K([γGlu-γGlu-C20 diacid])CNTATCATQRLAEFLRHSSPNFGAILSSTPVGPETY-NH2; disulfide 2-7), the IC50 in assay [1] was found to be 69 pM; in assay [4], 1560 pM. In addition, the EC50 was found to be 1280 pM in assay [2] and 222 pM in assay [3]. The “Ratio hCT/hAmylin funct.” value was determined as 5.8 in assay [3] (setting [5]); 5.8 in assay [3] (setting [6]); 5.8 in assay [3] (Table 6i, hCTR funct. EC50 / hAmylin-R funct. EC50); 5.8 in assay [3] (hCTR funct. EC50 divided by hAmylin-R funct. EC50).

On to `CC[C@H](C)[C@H](NC(=O)[C@H](C)NC(=O)CNC(=O)[C@H](Cc1ccccc1)NC(=O)[C@H](CC(N)=O)NC(=O)[C@@H]1CCCN1C(=O)[C@H](CO)NC(=O)[C@H](CO)NC(=O)[C@H](Cc1c[nH]cn1)NC(=O)[C@H](CCCNC(=N)N)NC(=O)[C@H](CC(C)C)NC(=O)[C@H](Cc1ccccc1)NC(=O)[C@H](Cc1c[nH]cn1)NC(=O)[C@H](C)NC(=O)[C@H](CC(C)C)NC(=O)[C@H](CCCNC(=N)N)NC(=O)[C@H](CCC(N)=O)NC(=O)[C@@H](NC(=O)[C@H](C)NC(=O)[C@@H]1CSSC[C@H](NC(=O)[C@@H](N)CCCCNC(=O)CC[C@H](NC(=O)CCCCCCCCCCCCCCCCCCC(=O)O)C(=O)O)C(=O)N[C@@H](CC(N)=O)C(=O)N[C@@H]([C@@H](C)O)C(=O)N[C@@H](C)C(=O)N[C@@H]([C@@H](C)O)C(=O)N1)[C@@H](C)O)C(=O)N1CCC[C@H]1C(=O)N[C@@H](CO)C(=O)N[C@@H](CO)C(=O)N[C@H](C(=O)N1CCC[C@H]1C(=O)N[C@H](C(=O)NCC(=O)N1CCC[C@H]1C(=O)N[C@@H](CC(N)=O)C(=O)N[C@H](C(=O)N[C@@H](Cc1ccc(O)cc1)C(N)=O)[C@@H](C)O)C(C)C)[C@@H](C)O` [Example 116] (H-K([γGlu-C20 diacid])CNTATCATQRLAHFLRHSSPNFGAIPSSTPVGPNTY-NH2; disulfide 2-7), for which the values for the IC50 in assay [1] and in assay [4] were 82 pM and 2040 pM, respectively. For the same molecule, the EC50 is 345 pM in assay [2] and 71 pM in assay [3]. The “Ratio hCT/hAmylin funct.” value in assay [3] (setting [5]) is reported as 4.9.

Consider `CC[C@H](C)[C@H](NC(=O)[C@H](C)NC(=O)CNC(=O)[C@H](Cc1ccccc1)NC(=O)[C@H](CC(N)=O)NC(=O)[C@@H]1CCCN1C(=O)[C@H](CO)NC(=O)[C@H](CO)NC(=O)[C@H](Cc1c[nH]cn1)NC(=O)[C@H](CCCNC(=N)N)NC(=O)[C@H](CC(C)C)NC(=O)[C@H](Cc1ccccc1)NC(=O)[C@H](CC(N)=O)NC(=O)[C@H](C)NC(=O)[C@H](CC(C)C)NC(=O)[C@H](CCCNC(=N)N)NC(=O)[C@H](CCC(N)=O)NC(=O)[C@@H](NC(=O)[C@H](C)NC(=O)[C@@H]1CSSC[C@H](NC(=O)[C@@H](N)CCCCNC(=O)CC[C@H](NC(=O)CCCCCCCCCCCCCCC(=O)O)C(=O)O)C(=O)N[C@@H](CC(N)=O)C(=O)N[C@@H]([C@@H](C)O)C(=O)N[C@@H](C)C(=O)N[C@@H]([C@@H](C)O)C(=O)N1)[C@@H](C)O)C(=O)N1CCC[C@H]1C(=O)N[C@@H](CO)C(=O)N[C@@H](CO)C(=O)N[C@H](C(=O)N[C@@H](CC(N)=O)C(=O)N[C@H](C(=O)NCC(=O)N[C@@H](Cc1c[nH]cn1)C(=O)N[C@@H](CC(N)=O)C(=O)N[C@H](C(=O)N[C@@H](Cc1ccc(O)cc1)C(N)=O)[C@@H](C)O)C(C)C)[C@@H](C)O` [Example 111], for which the IC50 in assay [1] worked out at 580 pM; in assay [4] it was 10800 pM. Also, the values for the EC50 in assay [2] and in assay [3] were 2210 pM and 34 pM, respectively.

Consider `CC[C@H](C)[C@H](NC(=O)[C@H](C)NC(=O)CNC(=O)[C@H](Cc1ccccc1)NC(=O)[C@H](CC(N)=O)NC(=O)[C@@H]1CCCN1C(=O)[C@H](CO)NC(=O)[C@H](CO)NC(=O)[C@H](Cc1c[nH]cn1)NC(=O)[C@H](CCCNC(=N)N)NC(=O)[C@H](CC(C)C)NC(=O)[C@H](Cc1ccccc1)NC(=O)[C@@H](CC(=O)O)NC(=O)[C@H](C)NC(=O)[C@H](CC(C)C)NC(=O)[C@H](CCCNC(=N)N)NC(=O)[C@H](CCC(N)=O)NC(=O)[C@@H](NC(=O)[C@H](C)NC(=O)[C@@H]1CSSC[C@H](NC(=O)[C@@H](N)CCCCNC(=O)CC[C@H](NC(=O)CC[C@H](NC(=O)CCCCCCCCCCCCCCCCCCC(=O)O)C(=O)O)C(=O)O)C(=O)N[C@@H](CC(N)=O)C(=O)N[C@@H]([C@@H](C)O)C(=O)N[C@@H](C)C(=O)N[C@@H]([C@@H](C)O)C(=O)N1)[C@@H](C)O)C(=O)N1CCC[C@H]1C(=O)N[C@@H](CO)C(=O)N[C@@H](CO)C(=O)N[C@H](C(=O)N[C@@H](CC(N)=O)C(=O)N[C@H](C(=O)NCC(=O)N[C@@H](CO)C(=O)N[C@@H](CCCNC(=N)N)C(=O)N[C@H](C(=O)N[C@@H](Cc1ccc(O)cc1)C(N)=O)[C@@H](C)O)C(C)C)[C@@H](C)O` [Example 131], for which the IC50 in assay [1] is 365 pM; in assay [4], 112000 pM. Moreover, the EC50 turned out to be 100000 pM in assay [2] and 383 pM in assay [3].

In the case of `CC[C@H](C)[C@H](NC(=O)[C@H](C)NC(=O)CNC(=O)[C@H](Cc1ccccc1)NC(=O)[C@H](CC(N)=O)NC(=O)[C@@H]1CCCN1C(=O)[C@H](CO)NC(=O)[C@H](CO)NC(=O)[C@H](Cc1c[nH]cn1)NC(=O)[C@H](CCCNC(=N)N)NC(=O)[C@H](CC(C)C)NC(=O)[C@H](Cc1ccccc1)NC(=O)[C@H](Cc1c[nH]cn1)NC(=O)[C@H](C)NC(=O)[C@H](CC(C)C)NC(=O)[C@H](CCCNC(=N)N)NC(=O)[C@H](CCC(N)=O)NC(=O)[C@@H](NC(=O)[C@H](C)NC(=O)[C@@H]1CSSC[C@H](NC(=O)[C@@H](N)CCCCNC(=O)CC[C@H](NC(=O)CC[C@H](NC(=O)CCCCCCCCCCCCCCCCCCC(=O)O)C(=O)O)C(=O)O)C(=O)N[C@@H](CC(N)=O)C(=O)N[C@@H]([C@@H](C)O)C(=O)N[C@@H](C)C(=O)N[C@@H]([C@@H](C)O)C(=O)N1)[C@@H](C)O)C(=O)N1CCC[C@H]1C(=O)N[C@@H](CO)C(=O)N[C@@H](CO)C(=O)N[C@H](C(=O)N[C@@H](CC(N)=O)C(=O)N[C@H](C(=O)NCC(=O)N[C@@H](CO)C(=O)N[C@@H](CC(N)=O)C(=O)N[C@H](C(=O)N[C@@H](Cc1ccc(O)cc1)C(N)=O)[C@@H](C)O)C(C)C)[C@@H](C)O` [Example 92], the IC50 in assay [1] was found to be 179 pM; in assay [4], 26000 pM. Further, the EC50 worked out at 2380 pM in assay [2] and 85 pM in assay [3]. Further, the “Ratio hCT/hAmylin funct.” value in assay [3] (setting [5]) came out at 28.0; in assay [3] (setting [6]), 28.0; in assay [3] (Table 6j, hCTR funct. EC50 / hAmylin-R funct. EC50), 28.0; in assay [3] (Table 6k, hCTR funct. EC50 / hAmylin-R funct. EC50), 28.0.

Source of the values: patent US8575091B1, “Amylin analogues and pharmaceutical compositions thereof” (Novo Nordisk A/S, priority 2012, dated 2013).
